# Like-named read-outs stand apart in the source and are kept apart here.
# Experiments:
# α-glucosidase = molecular target: α-glucosidase; parameters: method as in earlier work; details: known active flavonoids from B. strychnifolia stem; cited from earlier work
# [1] = test system: LPS-induced raw 264.7 cells; assay: Nitric oxide production in LPS-induced raw 264.7 cells (Griess assay); assay type: cell-based, murine; details: 200 ng/mL LPS, 24 h, Figure 5
# Method: The investigation of the inhibitory activities against LPS induced nitric oxide (NO) production of crude extract, partitioned fractions, and isolated compounds by Griess assay, which was accomplished as described by Kaewdana et al.. Briefly, Raw264.7 cells were seeded, at the density of 1 × 10^5 cells/well, in 96-well plates. After 1–2 h culture, the medium was changed and co-treated with different concentrations of samples and 200 ng/mL LPS for 24 h. After that, the nitrite-containing medium was equally mixed with the Griess reagent (1% sulfanilamide in 5% phosphoric acid and 0.1% naphthyl ethylenediamine dihydrochloride (NED) in water) and measured by a microplate reader at 570 nm. Indomethacin (a nonsteroidal anti-inflammatory drug) was used as a positive control. Results were shown as the percentage of inhibition calculated, following the equation: [(Acontrol − Asample)/Acontrol] × 100.
# [2] = molecular target: T1, dipeptidyl peptidase-IV (DPP-IV) from porcine kidney (Sus scrofa, UniProt P22411); assay: Dipeptidyl peptidase-IV (DPP-IV) inhibitory assay (GP-p-NA substrate); assay type: biochemical
# T1 construct: purchased Sigma Aldrich Inc. (St. Louis, MO. USA); host or cells: porcine kidney (tissue-derived enzyme)
# T1 sequence (P22411 whole entry): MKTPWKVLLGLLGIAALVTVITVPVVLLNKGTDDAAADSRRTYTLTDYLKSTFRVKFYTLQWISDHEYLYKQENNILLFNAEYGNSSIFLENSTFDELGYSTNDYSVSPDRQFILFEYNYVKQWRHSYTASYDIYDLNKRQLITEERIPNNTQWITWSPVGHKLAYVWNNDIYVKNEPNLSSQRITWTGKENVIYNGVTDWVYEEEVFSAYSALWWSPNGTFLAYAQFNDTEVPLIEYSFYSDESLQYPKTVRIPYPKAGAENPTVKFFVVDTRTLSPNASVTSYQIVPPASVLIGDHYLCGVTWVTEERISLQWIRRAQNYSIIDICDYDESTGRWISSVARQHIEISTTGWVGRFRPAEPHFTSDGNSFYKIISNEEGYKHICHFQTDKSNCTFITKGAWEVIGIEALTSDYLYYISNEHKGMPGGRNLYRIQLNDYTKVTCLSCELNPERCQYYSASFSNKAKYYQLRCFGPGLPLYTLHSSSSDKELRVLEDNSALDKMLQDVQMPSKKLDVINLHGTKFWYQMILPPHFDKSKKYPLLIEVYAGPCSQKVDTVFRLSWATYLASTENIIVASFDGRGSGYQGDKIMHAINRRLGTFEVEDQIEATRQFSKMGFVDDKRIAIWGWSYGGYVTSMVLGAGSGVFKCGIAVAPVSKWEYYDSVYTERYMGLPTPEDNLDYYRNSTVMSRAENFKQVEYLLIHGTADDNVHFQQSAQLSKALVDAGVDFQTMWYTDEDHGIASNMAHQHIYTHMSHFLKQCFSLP
# Source text: (§1) Folin–Ciocalteu reagent was bought from Merck (Darmstadt, Germany). Fetal bovine serum (FBS), penicillin-streptomycin, Dulbecco’s Modified Eagle Medium, high glucose (DMEM, high glucose), Roswell Park Memorial Institute (RPMI) 1640 medium, trypsin-EDTA, trypan blue dyes, and 3-(4,5-dimethylthiazol-2-yl)-2,5 diphenyltetrazolium bromide (MTT) were obtained from Thermo Fisher Scientific (Waltham, CA, USA). Ethanol, methanol, hexane, dichloromethane, ethyl acetate, and acetone (as analytical grades) were purchased from Labscan Asia Co., Bangkok, Thailand.
# The DPP-IV inhibition activities of crude extract, partitioned fractions, and isolated pure compounds were investigated, following the procedure of Van et al. (2009) and Al-Masri et al. (2009), with some modifications. Concisely, 40 µL of each sample diluted in 50 mM Tris-HCl buffer, pH 8.0 (at final concentration 50 ug/mL), was pre-incubated with 30 µL of 0.05 U/mL of DPP-IV enzyme at 37 °C. After 10 min, 100 µL of 0.2 mM GP-p-NA substrate was added to the solution and further incubated for 30 min. Then, the reaction was terminated with 30 µL of 25% acetic acid, and the absorbance at 405 nm was suddenly measured by a microplate reader (DTX880 Multimode Detector, Beckman Coulter®, Wein, Austria). The percentage of inhibition was calculated, following the formula: [(Acontrol − Asample)/Acontrol] × 100, where Acontrol and Asample were the absorbances of reaction with and without sample, respectively. Diprotin A was employed as a positive control, and the results were presented as the IC50 value.
# [3] = molecular target: T2, α-glucosidase from Saccharomyces cerevisiae (Saccharomyces cerevisiae, UniProt P53341); assay: α-Glucosidase inhibitory assay (pNPG substrate); assay type: biochemical; details: for IC50: IC50 α-Glucosidase
# T2 construct: purchased Sigma Aldrich Inc. (St. Louis, MO. USA)
# T2 sequence (P53341 whole entry): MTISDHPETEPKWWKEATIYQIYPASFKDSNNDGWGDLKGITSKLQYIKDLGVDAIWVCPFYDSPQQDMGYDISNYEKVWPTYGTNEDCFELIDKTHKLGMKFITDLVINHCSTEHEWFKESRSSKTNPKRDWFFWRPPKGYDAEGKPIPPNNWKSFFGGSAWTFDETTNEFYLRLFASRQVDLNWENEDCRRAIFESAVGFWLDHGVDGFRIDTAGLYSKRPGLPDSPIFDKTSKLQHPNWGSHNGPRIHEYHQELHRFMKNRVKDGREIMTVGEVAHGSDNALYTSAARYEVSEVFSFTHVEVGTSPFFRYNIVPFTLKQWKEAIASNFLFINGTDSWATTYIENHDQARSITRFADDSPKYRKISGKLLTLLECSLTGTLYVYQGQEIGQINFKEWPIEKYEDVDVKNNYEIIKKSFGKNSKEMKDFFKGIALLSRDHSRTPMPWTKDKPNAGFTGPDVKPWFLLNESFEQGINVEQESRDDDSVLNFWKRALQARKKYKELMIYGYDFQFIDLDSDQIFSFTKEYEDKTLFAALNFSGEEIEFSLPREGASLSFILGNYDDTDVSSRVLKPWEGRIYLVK
# Source text: as §1
# The inhibitory effects against α-glucosidase enzyme of crude extract, partitioned fractions, and all isolated pure compounds were examined according to previous assay. In brief, 50 µL of each sample in 50 mM phosphate buffer, pH 6.9 (at various concentrations), was pre-mixed with 50 µL of 0.57 U/mL α-glucosidase enzyme for 10 min at 37 °C. Then, 50 µL of 5 mM pNPG substrate was added into the mixture and further incubated for 30 min, after that stopping the reaction by 50 µL of 1 M sodium carbonate solution (Na2CO3). A microplate reader (DTX880 Multimode Detector, Beckman Coulter®, Wien, Austria) immediately measured the absorbance at 405 nm. The following equation calculated the percentage of inhibition: [(Acontrol − Asample)/Acontrol] × 100, where Acontrol and Asample were the absorbance of reaction without and with the sample, respectively.
# 3T3-L1 adipocytes = assay: Glucose uptake assay in differentiated 3T3-L1 adipocytes (GO kit); assay type: cell-based, mouse; details: for glucose uptake stimulation: positive control
# Method: The 3T3-L1 pre-adipocytes were induced to differentiate into adult adipocytes after 48 h of confluence in 48 wells plate. The cells were incubated with cultured media, comprising of 1 µg/mL insulin, 10 µM dexamethasone, and 0.5 mM IBMX. After 48 h of incubation, differentiate media were removed and replaced with cultured media containing 1 µg/mL insulin. Then, the maintained media were changed every two days for eight days.
# The glucose uptake stimulatory effect of crude extract, partitioned fractions, and isolated compounds was determined by the previously described method [60]. Briefly, differentiated adipocytes were grown in 48-well plates, with cultured media containing 2% FBS, for 18 h. Then, the cells were washed and treated with various concentrations of samples in a complete low glucose medium. After 24 h of incubation, the treated medium of samples was individually transferred into 96-well plates and mixed with the reagent of the GO kit at 37 °C for 30 min. The reaction was terminated by 6M H2SO4, and the absorbance of remaining glucose at 540 nm was recorded by a microplate reader. The ability to enhance glucose uptake was measured by the amount of glucose in the media. The percentage of glucose uptake stimulation was calculated by following equation: %stimulation = [(Acontrol − Asample)/Acontrol] × 100, where Acontrol and Asample were the absorbances of reaction with and without sample, respectively.
# [4] = molar value, in parentheses in Table 3
Compound,effect on NO production (in words) [1],IC50 [2] [µM],"IC50 [2, 4] [µM]",other results
"C[C@@H]1O[C@@H](Oc2coc3cc(O)cc(O)c3c2=O)[C@H](O)[C@H](O)[C@H]1O [3,5,7-Trihydroxychromone-3-O-α-L-rhamnopyranoside]",–,–,–,IC50 α-glucosidase inhibitory effect (α-glucosidase): 540 µg/mL
Oc1cc(O)c2c(c1)O[C@H](c1ccc(O)c(O)c1)[C@H](O)C2 [Epicatechin],inhibitory effect on NO production at only high concentrations,> 50,> 50,α-glucosidase inhibitory ability (in words) [3]: no effect
O=C(O)c1cc(O)c(O)c(O)c1 [Gallic acid],inhibitory effect on NO production at only high concentrations,> 50,> 50,"α-glucosidase inhibitory ability (in words) [3]: no effect; IC50 [3]: > 25 µM; IC50 [3, 4]: > 25 µM"
"COc1ccc2c(c1)c(CC(=O)O)c(C)n2C(=O)c1ccc(Cl)cc1 [Indomethacin, indomethacin, reference compound]",potent anti-inflammatory,–,–,–
O=c1c(O)c(-c2ccc(O)c(O)c2)oc2cc(O)cc(O)c12 [Quercetin],no effect,8.24,8.25,"glucose uptake stimulation effect (in words) (3T3-L1 adipocytes; Figure 4): higher glucose uptake stimulation effect than resveratrol, gallic acid, and epicatechin"
Oc1ccc(/C=C/c2cc(O)cc(O)c2)cc1 [Resveratrol],inhibitory effect on NO production at only high concentrations,14.1,14.1,–
"CN(C)C(=N)N=C(N)N [metformin, reference compound]",–,–,–,glucose uptake stimulation (3T3-L1 adipocytes; 2 mM): 85.34%
insulin,–,–,–,glucose uptake stimulation (3T3-L1 adipocytes; 100 nM): 92.81%
